# Laboratory results from patent publication EP0804408B1, “NOVEL 4-SUBSTITUTED 2,6-DI-TERT-BUTYLPHENOL COMPOUNDS, PHARMACEUTICAL COMPOSITIONS CONTAINING SAME AND PREPARATION METHOD THEREFOR” (priority 1994, dated 1996).
# System: NO-synthase inductible (iNOS)
# Experiment: iNOS induction test: nitrites in RAW264.7 supernatants by Griess reaction after nitrate reduction
# Format: cell-based, murins
# Details: IFNγ + LPS
# Source text: Cette hypothèse a été contrôlée en dosant les nitrites dans des surnageants de culture de macrophages murins de lignées activées en présence de AVF1. Les nitrites ont été dosés par la réaction de Griess après réduction de tous le nitrates grâce à la nitrate réductase de Pseudomonas oleoverans (Granger et al., J. Immunol., 1991, 146, 1294-1302). La spécificité de la réaction a été prouvée par l'emploi d'un inhibiteur spécifique de la synthèse du monoxyde d'azote, la N^G-monométhyl-L-arginine (L-NMMA).
# Le test d'induction iNOS consiste à ensemencer les macrophages RAW264.7 dans des plaques à 24 puits à raison de 1 x 10^6 sous 1,6 ml. Après 24 heures de culture permettant d'obtenir un tapis cellulaire complet, AVF1, dilué de raison 10 dans des des doses ne donnant pas de toxicité cellulaire (de 10^-6 à 10^-8 %), est ajouté dans 100 µl par cupule soit sur des macrophages sans activateur, avec ou sans l'inhibiteur de iNOS (action directe du produit sur les macrophages) soit en présence des inducteurs, avec ou sans inhibiteur (action du produit sur des macrophages activés).
# Après 24 heures de culture, les surnageants sont prélevés, centrifugés 10 minutes à 100 g à température ambiantes pour éliminer les éventuels débris cellulaires puis utilisés pour le dosage des nitrites.
# Deux volumes des surnageants clarifiés sont réduits en présence d'un volume d'une suspension de Pseudomonas oleovorans à 100 mg/ml et un volume de D-MEM sans rouge de phénol. Après une incubation de 90 minutes à 37°C sans agitation, les mélanges sont centrifugés 5 minutes à 4 000 g pour éliminer les bactéries et dilués au 1/5 et au 1/10 en eau distillée stérile.
# 100 µl des échantillons réduits et dilués sont distribués dans des séries de 2 puits dans une plaque ELISA (maxicorp, Nunc.). 200 µl du réactif de Griess (mélange ex-temporané volume à volume des solutions de sulfamide à 1,5 g/100 ml de HCl 1,2 N (87,1 mM) - réactif A - et de naphtylènediamine à 0,15 g/100 ml d'eau stérile (5,78 mM) - réactif B -) sont ajoutés.
# Cent autres µl d'échantillon servant de blanc de DO sont distribués et mélangés à 200 µl d'un mélange ex-temporané volume à volume d'eau distillée et du réactif colorimétrique A.
# Après 30 minutes à température ambiante à l'obscurité, la densité optique (DO) des échantillons est lue à 540 nm au lecteur de plaque pour ELISA.
# • Les contrôles du système d'induction iNOS sont composés de : • . Témoin cellules consistant en des macrophages ne recevant que du milieu de culture. • . Témoin d'induction consistant en des macrophages traités par 100 µl de lipopolysaccharide (LPS à 4 µg/ml, Difco) et par 100 µl d'interféron-γ recombinant (IFN-γ à 1 µU/ml, Boerhinger-Mannheim) afin d'activer la iNOS (Schmidt et al., Mol. Pharmacol., 1992, 41, 614-624). Les solutions mères de LPS et de IFN-γont été conservées respectivement à +4°C et à -20°C avant utilisation. • . Témoin d'inhibition spécifique pour prouver que les nitrites dosés proviennent de l'activation de la iNOS. Il consiste à incorporer à la culture un inhibiteur spécifique, la L-NMMA (N^G-monométhyl-L-arginine, Calbiochem) (Hibbs et al., Science, 1987, 235, 473-476) à des concentrations de raison 10 allant de 3 à 300 µM. Cette solution a été conservée sous parties aliquotes à -20°C avant utilisation. • Les contrôles de la réaction de Greiss sont composés de : • . Une solution de nitrate de sodium qui permet de contrôler l'activité nitrate-réductase des bactéries. • . Une gamme étalon de nitrite de sodium qui permet de doser les nitrites dans les échantillons. • Le blanc de DO de la gamme étalon contenant 100 µl d'eau distillée et 200 µl du mélange des réactifs A et B.
# [1] = L-NMMA (300 µM) alone (no AVF1)
structure (smiles),measurement,setting,value
"CNC(=N)NCCC[C@H](N)C(=O)O [L-NMMA, N^G-monométhyl-L-arginine, reference compound]",Concentration moyenne en nitrites en µM sur 2 échantillons,L-NMMA (3 µM) alone (no AVF1),"20,9 µM"
same,Pourcentage d'inhibition de la production de nitrite,L-NMMA (3 µM) alone (no AVF1),0%
same,Concentration moyenne en nitrites en µM sur 2 échantillons,L-NMMA (30 µM) alone (no AVF1),"14,7 µM"
same,Pourcentage d'inhibition de la production de nitrite,L-NMMA (30 µM) alone (no AVF1),29%
same,Concentration moyenne en nitrites en µM sur 2 échantillons,[1],"9,3 µM"
same,Pourcentage d'inhibition de la production de nitrite,[1],55%
